Measured values published in patent US20220276186A1, “OPTIMIZED ANALYTE DERIVATIZATION FOR SYNERGISTIC APPLICATION WITH CRYSTAL SPONGE METHOD” (MERCK PATENT GMBH, priority 2019, published 2022).

Experiment: solubility of the analyte in chloroform (step i of Procedure 1, crystalline sponge method)
Format: physicochemical
Description: Procedure 1—absorption of an organic molecule into a single porous crystal. Specifically, procedure 1 describes absorption of an organic molecule into a crystalline sponge comprising [(ZnCl2)3(tpt)2.(cyclohexane)x] (tpt=1,3,5-tris(4-pyridyl)triazine. The organic molecule is first dissolved in trichloro methane (chloroform), i.e., the sample comprises the organic molecule in trichloro methane. The procedure comprises the steps: • i—1 mg of organic molecule is dissolved in 1 ml of chloroform at room temperature. (Proportionally lower quantities can be used, depending on the available amount of analyte.) • ii—A single crystal of [(ZnCl2)3(tpt)2.(cyclohexane)x] (tpt=1,3,5-tris(4-pyridyl)triazine) crystal sponge of about 100 μm diameter, which has been visually inspected under a microscope and found to be without twinning or visible cracks, is placed in a septum screw-top glass vial with conically pointed bottom, submerged in 50 μl of cyclohexane. • iii—4.5 μl of the solution obtained in step (i) (containing 4.5 μg of analyte) is added to the crystalline sponge in cyclohexane as described in step (ii). • iv—The screw-top is closed, and the septum is pierced with a medical-type syringe needle, which may be left in that position to enable slow solvent evaporation. This assembly is incubated at 50° C. for 24 or more hours. […]

Compound	amount of analyte that could be dissolved in 1 ml chloroform (20° C.)	solution of analyte in chloroform that could be prepared without difficulty (Procedure 1 step i (room temperature)) [mg in 1 ml]
O=c1c(-c2ccc(O)cc2)coc2cc(O)ccc12 [4′,7-dihydroxy isoflavone]	about 0.005 mg in 1 ml	
COc1ccc(-c2coc3cc(OC)ccc3c2=O)cc1 [4′,7-dimethoxy isoflavone]		≥ 1
